ChEMBL document CHEMBL3886363, “Phenyl-tetrahydroisoquinoline derivatives” (2015)
Several values for one entry are separate records, joined by “and”; a condition that tells them apart may be missing. Equal values may be shown once.

Legend:
[1] = molecular target: T1, Cytochrome P450 11B2, mitochondrial (Homo sapiens, UniProt P19099); assay: (§1) Cellular Enzyme Assay: G-402 cells expressing CYP11 constructs were established as described above and maintained in McCoy's 5a Medium Modified, ATCC Catalog No. 30-2007 containing 10% FCS and 400 ug/ml G418 (Geneticin) at 37° C. under an atmosphere of 5% CO2/95% air. […] For assaying enzymatic activity, cells were plated onto 96 well plates and incubated for 16 h. An aliquot of the supernatant is then transferred and analyzed for the concentration of the expected product (Aldosterone for CYP11B2; Cortisol for CYP11B1). The concentrations of these steroids can be determined using HTRF assays from CisBio analyzing either Aldosterone or Cortisol.; type: cell-based
T1 sequence (P19099 whole entry): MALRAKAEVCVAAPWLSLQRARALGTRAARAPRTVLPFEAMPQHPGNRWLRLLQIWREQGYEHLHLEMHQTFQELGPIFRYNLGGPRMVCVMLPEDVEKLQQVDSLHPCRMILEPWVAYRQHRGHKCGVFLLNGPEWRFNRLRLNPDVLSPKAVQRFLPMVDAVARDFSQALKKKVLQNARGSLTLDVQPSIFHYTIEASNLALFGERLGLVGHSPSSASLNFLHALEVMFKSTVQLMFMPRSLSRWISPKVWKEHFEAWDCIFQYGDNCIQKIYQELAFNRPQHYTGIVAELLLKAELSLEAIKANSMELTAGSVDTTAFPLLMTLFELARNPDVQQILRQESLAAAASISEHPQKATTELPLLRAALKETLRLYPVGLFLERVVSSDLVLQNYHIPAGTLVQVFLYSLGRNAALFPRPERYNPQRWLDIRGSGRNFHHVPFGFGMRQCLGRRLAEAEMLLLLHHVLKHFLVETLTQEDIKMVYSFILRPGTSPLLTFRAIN

[2] = molecular target: T2, Cytochrome P450 11B1, mitochondrial (Homo sapiens, UniProt P15538); assay: as §1; type: cell-based
T2 sequence (P15538 whole entry): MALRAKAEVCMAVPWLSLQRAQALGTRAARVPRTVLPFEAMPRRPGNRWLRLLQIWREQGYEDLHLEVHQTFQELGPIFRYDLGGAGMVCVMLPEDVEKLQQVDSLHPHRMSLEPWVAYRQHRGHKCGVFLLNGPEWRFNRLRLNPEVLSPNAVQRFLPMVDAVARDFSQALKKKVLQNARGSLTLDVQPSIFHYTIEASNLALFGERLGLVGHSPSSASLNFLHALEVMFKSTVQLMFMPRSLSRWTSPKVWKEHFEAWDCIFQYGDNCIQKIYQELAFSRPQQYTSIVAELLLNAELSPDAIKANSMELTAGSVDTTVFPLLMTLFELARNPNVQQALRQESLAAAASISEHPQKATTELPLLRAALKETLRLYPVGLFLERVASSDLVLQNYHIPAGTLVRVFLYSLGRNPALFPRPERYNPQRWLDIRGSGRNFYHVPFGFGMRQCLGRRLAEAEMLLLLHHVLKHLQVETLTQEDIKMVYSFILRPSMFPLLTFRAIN

[3] = molecular target: T1, Cytochrome P450 11B2, mitochondrial; assay: as §1

| EC50 [1] [µM] | EC50 [2] | EC50 [3] | Structure (SMILES) |
| --- | --- | --- | --- |
| 0.0031 | 0.304 µM and 0.791 µM | 0.0303 µM | CC1(C)Cc2c(-c3ccc(C(F)(F)F)c(F)c3)cncc2C1O (single isomer, unassigned) |
|  |  | 0.0022 µM and 0.0121 µM | CC1(C)Cc2c(-c3ccc(C#N)cc3)cncc2C1O (single isomer, unassigned) |
| 0.0304 | 2.7 µM and 1.64 µM | 0.0152 µM | CC1(C)Cc2c(-c3ccc(C(F)(F)F)cc3)cncc2C1O (single isomer, unassigned) |
|  |  | 5.77 µM | CCC(=O)NC1CCc2c(-c3ccc(F)c(C)c3)cncc21 (single isomer, unassigned; form 1) |
